Measurements taken from ChEMBL document CHEMBL2429771, “Drug discovery for neglected diseases: molecular target-based and phenotypic approaches” (J Med Chem, 2013).

Legend:
Trypanosoma brucei [1] = assay: Inhibition of wild type blood stream form of Trypanosoma brucei expressing trypanothione synthase after 72 hrs; type: functional, organism-based
[2] = Inhibition of Trypanosoma brucei trypanothione synthase
Trypanosoma brucei [3] = assay: Inhibition of blood stream form of trypanothione synthase single knockout Trypanosoma brucei after 72 hrs; type: functional, organism-based
Trypanosoma brucei [4] = assay: Inhibition of blood stream form of Trypanosoma brucei overexpressing trypanothione synthase after 72 hrs; type: functional, organism-based
[5] = Inhibition of Leishmania mexicana CRK3/CYC6
CDK2/Cyclin A2 = CDK2/Cyclin A2 (Homo sapiens, UniProt P24941); assay: Inhibition of human CDK2/Cyclin A; type: protein-complex assay
[6] = Inhibition of Trypanosoma brucei PTR1 by spectrophotometry; settings: read-out: Ki(app)

SMILES: CN(C)CCCNC(=O)Cn1nc(-c2cccc(F)c2)c2ccccc21
- EC50 (Trypanosoma brucei [1]): 7 µM
- IC50 [2]: 0.045 µM
- EC50 (Trypanosoma brucei [3]): 1.2 µM
- EC50 (Trypanosoma brucei [4]): 23 µM

SMILES: O=C(Nc1cc(-c2ccc(Cl)cc2)n[nH]1)C1CCCCC1
- IC50 [5]: 0.34 µM
- IC50 (CDK2/Cyclin A2): > 100 µM

SMILES: Cc1cccc(-c2ccc3nc(NC(=O)CCC4CCCC4)nn3c2)c1
- IC50 [5]: < 0.005 µM
- IC50 (CDK2/Cyclin A2): > 100 µM

SMILES: COc1cccc(NC(=O)NC2=CC(=O)CC(C)(C)C2)c1
- IC50 [5]: 0.04 µM
- IC50 (CDK2/Cyclin A2): > 100 µM

SMILES: Nc1nc2ccc(Cl)cc2[nH]1
- Ki [6]: 11 µM

SMILES: Nc1nc2ccccc2[nH]1
- Ki [6]: 228 µM
